Source: US12268697B2, “Oxysterols and methods of use thereof” (Sage Therapeutics, Inc., priority 2015, dated 2025)

Molecular target: T1, GlunN1/GluN2A glutamate receptors (Homo sapiens, UniProt Q05586+Q12879)
T1 construct: expressed in transfected cells
Test: Whole-cell patch clamp of mammalian cells (Ionworks Barracuda, IWB), NMDA potentiation
Type: cell-based
Settings: 3 μM test article; HEK293 cells expressing human GRIN1/GRIN2A; co-application with EC20 L-glutamate and 30 μM glycine
Protocol: NMDA potentiation was assessed using either whole cell patch clamp of mammalian cells which expressed NMDA receptors.
Whole-Cell Patch Clamp of Mammalian Cells (Ionworks Barracuda (IWB)
The whole-cell patch-clamp technique was used to investigate the effects of compounds on GlunN1/GluN2A glutamate receptors expressed in mammalian cells.
HEK293 cells were transformed with adenovirus 5 DNA and transfected with cDNA encoding the human GRIN1/GRIN2A genes. Stable transfectants were selected using G418 and Zeocin-resistance genes incorporated into the expression plasmid and selection pressure maintained with G418 and Zeocin in the medium. Cells were cultured in Dulbecco's Modified Eagle Medium/Nutrient Mixture (D-MEM/F-12) supplemented with 10% fetal bovine serum, 100 μg/ml penicillin G sodium, 100 μg/ml streptomycin sulphate, 100 μg/ml Zeocin, 5 μg/ml blasticidin and 500 μg/ml G418.
Test article effects were evaluated in 8-point concentration-response format (4 replicate wells/concentration). […]
• a) Intracellular solution (mM): 50 mM CsCl, 90 mM CsF, 2 mM MgCl2, 5 mM EGTA, 10 mM HEPES. […] Cell suspension will be pipetted into the wells (9 μL per well) of the PPC planar electrode. • b) Whole-cell recording configuration will be established via patch perforation with membrane currents recorded by on-board patch clamp amplifiers. • c) Two recordings (scans) will be performed. […]

T1 sequence (Q12879 23-1464, other chains not shown): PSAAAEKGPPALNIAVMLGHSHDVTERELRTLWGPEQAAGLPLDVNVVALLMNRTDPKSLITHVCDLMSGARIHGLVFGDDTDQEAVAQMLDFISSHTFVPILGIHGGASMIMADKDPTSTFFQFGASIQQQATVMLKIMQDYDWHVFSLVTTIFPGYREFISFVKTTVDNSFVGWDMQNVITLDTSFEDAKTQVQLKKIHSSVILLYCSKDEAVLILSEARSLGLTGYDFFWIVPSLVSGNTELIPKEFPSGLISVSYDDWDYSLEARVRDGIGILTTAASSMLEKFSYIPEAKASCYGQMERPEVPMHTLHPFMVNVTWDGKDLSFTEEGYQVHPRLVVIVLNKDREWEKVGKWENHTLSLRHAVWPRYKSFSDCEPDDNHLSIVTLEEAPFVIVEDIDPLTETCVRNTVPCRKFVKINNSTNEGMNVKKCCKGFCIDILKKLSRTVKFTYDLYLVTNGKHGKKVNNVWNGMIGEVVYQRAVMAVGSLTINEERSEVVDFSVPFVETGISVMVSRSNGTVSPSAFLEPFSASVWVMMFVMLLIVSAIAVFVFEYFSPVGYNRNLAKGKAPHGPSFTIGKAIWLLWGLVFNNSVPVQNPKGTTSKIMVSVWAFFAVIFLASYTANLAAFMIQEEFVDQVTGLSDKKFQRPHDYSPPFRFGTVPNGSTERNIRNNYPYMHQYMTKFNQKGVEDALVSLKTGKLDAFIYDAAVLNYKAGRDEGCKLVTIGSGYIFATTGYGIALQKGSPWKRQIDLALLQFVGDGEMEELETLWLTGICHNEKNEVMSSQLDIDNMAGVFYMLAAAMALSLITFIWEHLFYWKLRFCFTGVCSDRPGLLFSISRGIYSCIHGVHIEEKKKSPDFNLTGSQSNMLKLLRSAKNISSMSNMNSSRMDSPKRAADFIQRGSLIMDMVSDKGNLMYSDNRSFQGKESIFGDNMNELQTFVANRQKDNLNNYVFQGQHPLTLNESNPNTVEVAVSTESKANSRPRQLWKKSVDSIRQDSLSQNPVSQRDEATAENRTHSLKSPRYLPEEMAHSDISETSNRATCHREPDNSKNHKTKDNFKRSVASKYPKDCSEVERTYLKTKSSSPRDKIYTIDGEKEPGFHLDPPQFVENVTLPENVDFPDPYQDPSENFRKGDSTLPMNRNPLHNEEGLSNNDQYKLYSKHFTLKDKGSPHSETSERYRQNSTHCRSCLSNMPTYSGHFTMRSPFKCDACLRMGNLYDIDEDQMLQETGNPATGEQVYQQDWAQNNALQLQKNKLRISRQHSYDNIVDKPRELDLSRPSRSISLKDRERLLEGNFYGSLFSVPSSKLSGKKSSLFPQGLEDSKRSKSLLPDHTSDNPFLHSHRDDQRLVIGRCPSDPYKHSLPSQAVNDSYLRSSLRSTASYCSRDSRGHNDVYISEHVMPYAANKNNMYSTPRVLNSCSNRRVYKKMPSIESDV

In the case of `C[C@H](CCC[C@@H](C)O)[C@H]1CC[C@H]2[C@@H]3CC[C@H]4C[C@@](C)(O)CC[C@]4(C)[C@H]3CC[C@]12C` [Compound 24], the “GluN2A PCA IWB Ephys % potentiation at 3 μM” value is reported as “B (“B” indicates potentiation of >100%)”.
